Measured values reported in patent US20250171438A1 (Agios Pharmaceuticals, Inc., priority 2022, published 2025).

Target: T1, human PAH with the R408W mutation (Homo sapiens, UniProt P00439, R408W)
T1 construct: expressed in transfected cells
T1 sequence (P00439 1-452 R408W): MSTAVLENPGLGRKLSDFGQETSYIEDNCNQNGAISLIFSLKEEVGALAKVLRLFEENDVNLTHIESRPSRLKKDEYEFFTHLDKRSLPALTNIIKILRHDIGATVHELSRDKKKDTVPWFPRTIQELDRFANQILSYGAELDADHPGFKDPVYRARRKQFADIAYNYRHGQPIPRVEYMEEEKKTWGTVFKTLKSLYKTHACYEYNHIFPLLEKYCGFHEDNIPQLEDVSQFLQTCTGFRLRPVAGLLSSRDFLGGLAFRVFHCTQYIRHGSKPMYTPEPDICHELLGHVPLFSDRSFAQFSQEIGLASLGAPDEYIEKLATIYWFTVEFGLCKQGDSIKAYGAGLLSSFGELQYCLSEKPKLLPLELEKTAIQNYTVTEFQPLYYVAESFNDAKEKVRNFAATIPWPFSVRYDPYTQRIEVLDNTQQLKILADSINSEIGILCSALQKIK
Experiment: Cell Based Phenylalanine Flux Assay
Details: A375 cells expressing human R408W PAH; 24 hrs compound incubation; 13C-Tyrosine by LC-MS; average where tested multiple times; read-out: AC50

Structure (SMILES)	AC50
O=C(c1oc(NC2CC2)nc1C(F)(F)F)N1CCc2[nH]cnc2[C@@H]1c1nc2ccccc2s1 [Example 1560, (R)-(4-(benzo[d]thiazol-2-yl)-6,7-dihydro-1H-imidazo[4,5-c]pyridin-5(4H)-yl)(2-(cyclopropylamino)-4-(trifluoromethyl)oxazol-5-yl)methanone]	< 500 nM
Cn1nccc1C(=O)N1CCc2[nH]cnc2[C@H]1c1nc2c(F)cccc2s1 [Example 1603]	1000 to 5000 nM
O=C(c1cnn(CC(F)(F)F)c1C(F)F)N1CCc2[nH]cnc2[C@@H]1c1nc2c(F)cccc2s1 [Example 1976, (R)-(5-(difluoromethyl)-1-(2,2,2-trifluoroethyl)-1H-pyrazol-4-yl)(4-(4-fluorobenzo[d]thiazol-2-yl)-6,7-dihydro-1H-imidazo[4,5-c]pyridin-5(4H)-yl)methanone]	500 to 1000 nM
CN(C)CCn1cc(C(=O)N2CCc3[nH]cnc3[C@H]2c2nc3c(F)cccc3s2)c(C(F)(F)F)n1 [Example 1641]	< 500 nM
O=C(c1cc2cccnn2c1)N1CCc2[nH]cnc2[C@H]1c1nc2ccccc2s1 [Example 1127]	500 to 1000 nM
O=C(c1nnc(OCCC(F)(F)F)o1)N1CCc2[nH]cnc2[C@H]1c1nc2ccccc2s1 [Example 1790]	500 to 1000 nM
CC(C)(F)c1ccc2c(C(=O)N3CCc4[nH]cnc4[C@@H]3c3nc4c(F)cccc4s3)cnn2c1 [Example 1490, (R)-(4-(4-fluorobenzo[d]thiazol-2-yl)-6,7-dihydro-1H-imidazo[4,5-c]pyridin-5(4H)-yl)(6-(2-fluoropropan-2-yl)pyrazolo[1,5-a]pyridin-3-yl)methanone]	1000 to 5000 nM
O=C(c1nnc(-c2ncccc2F)o1)N1CCc2[nH]cnc2[C@H]1c1nc2ccccc2s1 [Example 1710]	1000 to 5000 nM
CC(O)(c1nc(C(F)(F)F)c(C(=O)N2CCc3[nH]cnc3[C@@H]2c2nc3ccccc3s2)o1)C1CC1 (single isomer, unassigned) [Example 1563]	< 500 nM
CN(C)Cc1ccc2c(C(=O)N3CCc4[nH]cnc4[C@H]3c3nc4c(F)cccc4s3)cnn2c1 [Example 1619, (S)-(6-((dimethylamino)methyl)pyrazolo[1,5-a]pyridin-3-yl)(4-(4-fluorobenzo[d]thiazol-2-yl)-6,7-dihydro-1H-imidazo[4,5-c]pyridin-5(4H)-yl)methanone]	500 to 1000 nM
N#Cc1nc(OCCC(F)(F)F)oc1C(=O)N1CCc2[nH]cnc2[C@H]1c1nc2ccccc2s1 [Example 1674, (S)-5-(4-(benzo[d]thiazol-2-yl)-4,5,6,7-tetrahydro-1H-imidazo[4,5-c]pyridine-5-carbonyl)-2-(3,3,3-trifluoropropoxy)oxazole-4-carbonitrile]	500 to 1000 nM
CC(C)(O)c1nc(C(F)(F)F)c(C(=O)N2CC3(CC3)c3[nH]cnc3[C@@H]2c2nc3ccccc3s2)o1 [Example 1680, (R)-(4′-(benzo[d]thiazol-2-yl)spiro[cyclopropane-1,7′-imidazo[4,5-c]pyridin]-5′(1′H,4′H,6′H)-yl)(2-(2-hydroxypropan-2-yl)-4-(trifluoromethyl)oxazol-5-yl)methanone]	1000 to 5000 nM
O=C(c1nnc(NC2CC2)o1)N1CCc2[nH]cnc2[C@@H]1c1nc2ccccc2s1 [Example 1594, (R)-(4-(benzo[d]thiazol-2-yl)-6,7-dihydro-1H-imidazo[4,5-c]pyridin-5(4H)-yl)(5-(cyclopropylamino)-1,3,4-oxadiazol-2-yl)methanone]	1000 to 5000 nM
O=C(c1nc(Cl)cs1)N1CCc2[nH]cnc2[C@H]1c1nc2ccc(Cl)cc2[nH]1 [Example 955, (S)-(4-(6-chloro-1H-benzo[d]imidazol-2-yl)-6,7-dihydro-1H-imidazo[4,5-c]pyridin-5(4H)-yl)(4-chlorothiazol-2-yl)methanone]	500 to 1000 nM
O=C(c1nncs1)N1CCc2[nH]cnc2[C@@H]1c1nc2c(F)cccc2s1 [Example 1269, (R)-(4-(4-fluorobenzo[d]thiazol-2-yl)-6,7-dihydro-1H-imidazo[4,5-c]pyridin-5(4H)-yl)(1,3,4-thiadiazol-2-yl)methanone]	1000 to 5000 nM
Cc1cccc2nc([C@H]3c4nc[nH]c4CCN3C(=O)c3cnco3)sc12 [Example 2180, (R)-(4-(7-methylbenzo[d]thiazol-2-yl)-6,7-dihydro-1H-imidazo[4,5-c]pyridin-5(4H)-yl)(oxazol-5-yl)methanone]	> 5000 nM
Cc1cccc2sc([C@@H]3c4nc[nH]c4CCN3C(=O)c3cncs3)nc12 [Example 1305, (S)-(4-(4-methylbenzo[d]thiazol-2-yl)-6,7-dihydro-1H-imidazo[4,5-c]pyridin-5(4H)-yl)(thiazol-5-yl)methanone]	500 to 1000 nM
Cc1nc(C)c(C(=O)N2CCc3[nH]cnc3[C@@H]2c2nc3c(F)cccc3s2)o1 [Example 1322, (R)-(2,4-dimethyloxazol-5-yl)(4-(4-fluorobenzo[d]thiazol-2-yl)-6,7-dihydro-1H-imidazo[4,5-c]pyridin-5(4H)-yl)methanone]	> 5000 nM
Cn1ccc(-c2nnc(C(=O)N3CCc4[nH]cnc4[C@H]3c3nc4c(F)cccc4s3)o2)n1 [Example 1826, (S)-(4-(4-fluorobenzo[d]thiazol-2-yl)-6,7-dihydro-1H-imidazo[4,5-c]pyridin-5(4H)-yl)(5-(1-methyl-1H-pyrazol-3-yl)-1,3,4-oxadiazol-2-yl)methanone]	< 500 nM
O=C(c1cnco1)N1CCc2[nH]cnc2[C@H]1c1nc2c(F)cccc2s1 [Example 1223, (S)-(4-(4-fluorobenzo[d]thiazol-2-yl)-6,7-dihydro-1H-imidazo[4,5-c]pyridin-5(4H)-yl)(oxazol-5-yl)methanone]	500 to 1000 nM
CCn1ncnc1C(=O)N1CCc2[nH]cnc2[C@@H]1c1nc2c(F)cccc2s1 [Example 1960, (R)-(1-ethyl-1H-1,2,4-triazol-5-yl)(4-(4-fluorobenzo[d]thiazol-2-yl)-6,7-dihydro-1H-imidazo[4,5-c]pyridin-5(4H)-yl)methanone]	1000 to 5000 nM
O=C(c1oc(C2(O)CCC2)nc1C(F)(F)F)N1CCCc2[nH]cnc2[C@H]1c1nc2ccccc2s1 [Example 2137, (S)-(4-(benzo[d]thiazol-2-yl)-7,8-dihydroimidazo[4,5-c]azepin-5(1H,4H,6H)-yl)(2-(1-hydroxycyclobutyl)-4-(trifluoromethyl)oxazol-5-yl)methanone]	1000 to 5000 nM
O=C(c1nnc(-c2ncccc2F)o1)N1CCc2[nH]cnc2[C@@H]1c1nc2c(F)cccc2s1 [Example 1901, (R)-(4-(4-fluorobenzo[d]thiazol-2-yl)-6,7-dihydro-1H-imidazo[4,5-c]pyridin-5(4H)-yl)(5-(3-fluoropyridin-2-yl)-1,3,4-oxadiazol-2-yl)methanone]	500 to 1000 nM
CC1(C(=O)N2CCc3[nH]cnc3[C@@H]2c2nc3ccccc3s2)CC1(F)F (single isomer, unassigned) [Example 1289]	1000 to 5000 nM
CC(C)(O)c1cccc2c(C(=O)N3CCc4[nH]cnc4[C@H]3c3nc4ccccc4s3)cnn12 [Example 1481]	< 500 nM
C[C@@H](O)c1nc(C(F)F)c(C(=O)N2CCc3[nH]cnc3[C@@H]2c2nc3c(C(F)(F)F)cccc3s2)o1 [Example 2110, (4-(difluoromethyl)-2-((R)-1-hydroxyethyl)oxazol-5-yl)((R)-4-(4-(trifluoromethyl)benzo[d]thiazol-2-yl)-6,7-dihydro-1H-imidazo[4,5-c]pyridin-5(4H)-yl)methanone]	1000 to 5000 nM
C[C@H]1CN(C(=O)c2ocnc2C2CC2)[C@H](c2nc3c(F)cccc3s2)c2nc[nH]c21 [Example 1608, (4-cyclopropyloxazol-5-yl)((4S,7S)-4-(4-fluorobenzo[d]thiazol-2-yl)-7-methyl-6,7-dihydro-1H-imidazo[4,5-c]pyridin-5(4H)-yl)methanone]	500 to 1000 nM

Same assay, conditions: A375 cells expressing human R408W PAH; 24 hrs with compound; 13C-Tyrosine by LC-MS; average where tested multiple times; read-out: AC50

Structure (SMILES)	AC50
O=C(c1ccno1)N1CCc2[nH]cnc2C1c1nc2cccc(F)c2s1 (stereo not shown)	1000 to 5000 nM
O=C(Cc1ccccn1)N1CCc2[nH]cnc2[C@H]1c1nc2ccccc2[nH]1 [(S)-1-(4-(1H-benzo[d]imidazol-2-yl)-6,7-dihydro-1H-imidazo[4,5-c]pyridin-5(4H)-yl)-2-(pyridin-2-yl)ethanone]	1000 to 5000 nM
Cc1nc(-c2ccccn2)oc1C(=O)N1CC(C)c2[nH]cnc2C1c1nc2ccccc2s1 (stereo not shown)	1000 to 5000 nM
N#Cc1ccn2ncc(C(=O)N3CCc4[nH]cnc4[C@H]3c3nc4ccccc4[nH]3)c2c1 [(S)-3-(4-(1H-benzo[d]imidazol-2-yl)-4,5,6,7-tetrahydro-1H-imidazo[4,5-c]pyridine-5-carbonyl)pyrazolo[1,5-a]pyridine-5-carbonitrile]	> 5000 nM
O=C(c1cnn2ccc(Cl)cc12)N1CCc2[nH]cnc2C1c1nc2ccc(Cl)cc2[nH]1 (stereo not shown)	1000 to 5000 nM
O=C(c1cn[nH]c1)N1CCc2[nH]cnc2C1c1nc2ccccc2[nH]1 (stereo not shown)	> 5000 nM
O=C(c1cc(Cl)n[nH]1)N1CCc2[nH]cnc2C1c1nc2c(F)cccc2s1 (stereo not shown)	1000 to 5000 nM
O=C(c1cnn2cc(Cl)ccc12)N1CCc2[nH]cnc2C1c1nc2ccc(F)cc2s1 (stereo not shown)	> 5000 nM
CN(C)Cc1ccc2c(C(=O)N3CC4(CC4)c4[nH]cnc4C3c3nc4ccccc4s3)cnn2c1 (stereo not shown)	> 5000 nM
Cn1ccc(C(=O)N2CCc3[nH]cnc3C2c2nc3c(F)cccc3s2)n1 (stereo not shown)	1000 to 5000 nM
CC(C)(O)c1cc(C(=O)N2CCc3[nH]cnc3C2c2nc3c(F)cccc3s2)no1 (stereo not shown)	1000 to 5000 nM
O=C(C1CN(CC(F)(F)F)C1)N1CCc2[nH]cnc2C1c1nc2c(F)cccc2s1 (stereo not shown)	1000 to 5000 nM
O=C(CCc1nc2ccccc2o1)N1CCc2[nH]cnc2C1c1nc2ccccc2[nH]1 (stereo not shown)	1000 to 5000 nM
